Measured values taken from ChEMBL document CHEMBL1124314, “Development of phosphonate derivatives of gadolinium chelates for NMR imaging of calcified soft tissues” (J Med Chem, 1989).

Experiments:
[1] = species on record: Rattus norvegicus; test: Biodistribution in rat heart in the presence of 0.05 M/0.08 M GdDTPA-HPDP; assay type: ADME, organism-based; conditions: in vivo
[2] = species on record: Rattus norvegicus; test: Biodistribution in rat bone in the presence of GdDTPA-HPDP at 30 min; assay type: ADME, organism-based, Bone element; conditions: in vivo, 0.5 h
[3] = species on record: Rattus norvegicus; test: Biodistribution in rat blood in the presence of 0.001 M/0.008 M GdDTPA-AEP; assay type: ADME, organism-based; conditions: in vivo
[4] = species on record: Rattus norvegicus; test: Biodistribution in rat bone in the presence of GdDTPA-BDP at 1 h; conditions: in vivo
[5] = species on record: Rattus norvegicus; test: Biodistribution in rat heart in the presence of GdDTPA-HPDP at 1 hr; assay type: ADME, organism-based; conditions: in vivo
[6] = species on record: Rattus norvegicus; test: Biodistribution in rat muscle in the presence of 0.10 M GdDTPA-BDP; assay type: ADME, organism-based, Muscle tissue; conditions: in vivo
[7] = species on record: Rattus norvegicus; test: Biodistribution in rat bone in the presence of GdDTPA-BDP at 4 hr; assay type: ADME, organism-based, Bone element; conditions: in vivo
[8] = species on record: Rattus norvegicus; test: Biodistribution in rat blood in the presence of 0.01 M/0.01 M GdDTPA-AEP; assay type: ADME, organism-based; conditions: in vivo
[9] = species on record: Rattus norvegicus; test: Biodistribution in rat liver in the presence of GdDTPA-BDP at 20 min; conditions: in vivo, 0.33 h
[10] = species on record: Rattus norvegicus; test: Biodistribution in rat bone in the presence of 0.05 M/0.05 M GdDTPA-AEP; assay type: ADME, organism-based, Bone element; conditions: in vivo
[11] = species on record: Rattus norvegicus; test: Biodistribution in rat bone in the presence of GdDTPA at 30 min; assay type: ADME, organism-based, Bone element; conditions: in vivo, 0.5 h
[12] = species on record: Rattus norvegicus; test: Biodistribution in rat bone in the presence of 0.05 M GdDTPA-BDP; assay type: ADME, organism-based, Bone element; conditions: in vivo
[13] = species on record: Rattus norvegicus; test: Biodistribution in rat kidney in the presence of 0.05 M/0.08 M GdDTPA-HPDP; assay type: ADME, organism-based; conditions: in vivo
[14] = species on record: Rattus norvegicus; test: Biodistribution in rat liver in the presence of GdDTPA at 4 hr; assay type: ADME, organism-based; conditions: in vivo
[15] = species on record: Rattus norvegicus; test: Biodistribution in rat liver in the presence of 0.05 M/0.05 M GdDTPA-AEP; assay type: ADME, organism-based; conditions: in vivo
[16] = species on record: Rattus norvegicus; test: Biodistribution in rat liver in the presence of 0.05 M GdDTPA-BDP; assay type: ADME, organism-based; conditions: in vivo
[17] = species on record: Rattus norvegicus; test: Biodistribution in rat bone in the presence of GdDTPA-BDP at 1 hr; assay type: ADME, organism-based, Bone element; conditions: in vivo
[18] = species on record: Rattus norvegicus; test: Biodistribution in rat blood in the presence of GdDTPA-HPDP at 30 min; assay type: ADME, organism-based; conditions: in vivo, 0.5 h
[19] = species on record: Rattus norvegicus; test: Biodistribution in rat bone in the presence of GdDTPA-BDP at 4 hr; conditions: in vivo
[20] = species on record: Rattus norvegicus; test: Biodistribution in rat liver in the presence of 0.05 M/0.08 M GdDTPA-HPDP; assay type: ADME, organism-based; conditions: in vivo
[21] = species on record: Rattus norvegicus; test: Biodistribution in rat blood in the presence of GdDTPA-BDP at 20 min; conditions: in vivo, 0.33 h
[22] = species on record: Rattus norvegicus; test: Biodistribution in rat liver in the presence of 0.01 M GdDTPA-BDP; assay type: ADME, organism-based; conditions: in vivo
[23] = species on record: Rattus norvegicus; test: Biodistribution in rat blood in the presence of GdDTPA at 20 min; conditions: in vivo, 0.33 h
[24] = species on record: Rattus norvegicus; test: Biodistribution in rat heart in the presence of 0.10 M/0.11 M GdDTPA-HPDP; conditions: in vivo
[25] = species on record: Rattus norvegicus; test: Biodistribution in rat spleen in the presence of 0.10 M GdDTPA-BDP; assay type: ADME, organism-based; conditions: in vivo
[26] = species on record: Rattus norvegicus; test: Biodistribution in rat liver in the presence of GdDTPA at 1 hr; assay type: ADME, organism-based; conditions: in vivo
[27] = species on record: Rattus norvegicus; test: Biodistribution in rat blood in the presence of GdDTPA-BDPat 1 hr; assay type: ADME, organism-based; conditions: in vivo
[28] = species on record: Rattus norvegicus; test: Biodistribution in rat blood in the presence of 0.05 M/0.05 M GdDTPA-AEP; assay type: ADME, organism-based; conditions: in vivo
[29] = species on record: Rattus norvegicus; test: Biodistribution in rat muscle in the presence of GdDTPA-HPDPat 15 min; assay type: ADME, organism-based, Muscle tissue; conditions: in vivo, 0.25 h
[30] = species on record: Rattus norvegicus; test: Biodistribution in rat blood in the presence of 0.10 M/0.11 M GdDTPA-HPDP; conditions: in vivo
[31] = species on record: Rattus norvegicus; test: Biodistribution in rat bone in the presence of GdDTPA at 1 hr; assay type: ADME, organism-based, Bone element; conditions: in vivo
[32] = species on record: Rattus norvegicus; test: Biodistribution in rat kidney in the presence of 0.01 M/0.01 M GdDTPA-AEP; assay type: ADME, organism-based; conditions: in vivo
[33] = species on record: Rattus norvegicus; test: Biodistribution in rat heart in the presence of GdDTPA at 1 hr; assay type: ADME, organism-based; conditions: in vivo
[34] = species on record: Rattus norvegicus; test: Biodistribution in rat heart in the presence of NAC Gd/0.01 M GdDTPA-HPDP; assay type: ADME, organism-based; conditions: in vivo
[35] = species on record: Rattus norvegicus; test: Biodistribution in rat liver in the presence of GdDTPA at 30 min; assay type: ADME, organism-based; conditions: in vivo, 0.5 h
[36] = species on record: Rattus norvegicus; test: Biodistribution in rat bone in the presence of GdDTPA-HPDP at 4 hr; assay type: ADME, organism-based, Bone element; conditions: in vivo
[37] = species on record: Rattus norvegicus; test: Biodistribution in rat heart in the presence of GdDTPA; conditions: in vivo
[38] = species on record: Rattus norvegicus; test: Biodistribution in rat muscle in the presence of GdDTPA-BDP at 1 hr; assay type: ADME, organism-based, Muscle tissue; conditions: in vivo
[39] = species on record: Rattus norvegicus; test: Biodistribution in rat blood in the presence of 0.01 M GdDTPA-BDP; assay type: ADME, organism-based; conditions: in vivo
[40] = species on record: Rattus norvegicus; test: Biodistribution in rat heart in the presence of 0.01 M GdDTPA-BDP; assay type: ADME, organism-based; conditions: in vivo
[41] = species on record: Rattus norvegicus; test: Biodistribution in rat kidney in the presence of 0.01 M GdDTPA-BDP; assay type: ADME, organism-based; conditions: in vivo
[42] = species on record: Rattus norvegicus; test: Biodistribution in rat heart in the presence of GdDTPA-BDP at 1 hr; conditions: in vivo
[43] = species on record: Rattus norvegicus; test: Biodistribution in rat heart in the presence of GdDTPA at 4 hr; assay type: ADME, organism-based; conditions: in vivo
[44] = species on record: Rattus norvegicus; test: Biodistribution in rat bone in the presence of 0.01 M GdDTPA-BDP; assay type: ADME, organism-based, Bone element; conditions: in vivo
[45] = species on record: Rattus norvegicus; test: Biodistribution in rat spleen in the presence of 0.01 M GdDTPA-BDP; assay type: ADME, organism-based; conditions: in vivo
[46] = species on record: Rattus norvegicus; test: Biodistribution in rat heart in the presence of 0.05 M /0.05 M GdDTPA-AEP; assay type: ADME, organism-based; conditions: in vivo
[47] = species on record: Rattus norvegicus; test: Biodistribution in rat bone in the presence of GdDTPA at 4 hr; assay type: ADME, organism-based, Bone element; conditions: in vivo
[48] = species on record: Rattus norvegicus; test: Biodistribution in rat heart in the presence of 0.01 M Gd/0.01 M GdDTPA-AEP; assay type: ADME, organism-based; conditions: in vivo
[49] = species on record: Rattus norvegicus; test: Biodistribution in rat heart in the presence of GdDTPA-BDP at 4 hr; conditions: in vivo
[50] = species on record: Rattus norvegicus; test: Biodistribution in rat blood in the presence of GdDTPA-HPDP at 15 min; assay type: ADME, organism-based; conditions: in vivo, 0.25 h
[51] = species on record: Rattus norvegicus; test: Biodistribution in rat kidney in the presence of 0.001 M/0.008 M GdDTPA-AEP; conditions: in vivo
[52] = species on record: Rattus norvegicus; test: Biodistribution in rat bone in the presence of GdDTPA-HPDP at 15 min; assay type: ADME, organism-based, Bone element; conditions: in vivo, 0.25 h
[53] = species on record: Rattus norvegicus; test: Biodistribution in rat blood in the presence of GdDTPA-BDP at 1 hr; conditions: in vivo
[54] = species on record: Rattus norvegicus; test: Biodistribution in rat bone in the presence of 0.01 M/0.01 M GdDTPA-AEP; assay type: ADME, organism-based, Bone element; conditions: in vivo

Which results are given for `O=C(O)CN(CCN(CC(=O)O)CC(=O)O)CCN(CC(=O)O)CC(=O)O` [PENTETIC ACID]?
ID/organ [1]: 0.007%; ID/organ [2]: 16.8%; ID/organ [3]: 0.143%; ID/organ [4]: 17.6%; ID/organ [5]: 0.011%; ID/organ [6]: 3.59%; ID/organ [7]: 18.5%; ID/organ [8]: 0.503%; ID/organ [9]: 1.02%; ID/organ [10]: 0.483%; ID/organ [11]: 0.779%; ID/organ [12]: 16.3%; ID/organ [13]: 0.423%; ID/organ [14]: 0.163%; ID/organ [15]: 14.8%; ID/organ [16]: 1.23%; ID/organ [17]: 17.6%; ID/organ [18]: 2.46%; ID/organ [19]: 18.5%; ID/organ [20]: 0.109%; ID/organ [21]: 4.43%; ID/organ [22]: 5.21%; ID/organ [23]: 6.03%; ID/organ [24]: 0.006%; ID/organ [25]: 0.013%; ID/organ [26]: 0.267%; ID/organ [27]: 2.53%; ID/organ [28]: 0.556%; ID/organ [29]: 6.36%; ID/organ [30]: 0.19%; ID/organ [31]: 0.779%; ID/organ [32]: 0.222%; ID/organ [33]: 0.019%; ID/organ [34]: 0.032%; ID/organ [35]: 0.418%; ID/organ [36]: 18.1%; ID/organ [37]: 0.019%; ID/organ [38]: 4.47%; ID/organ [39]: 9.49%; ID/organ [40]: 0.129%; ID/organ [41]: 0.476%; ID/organ [42]: 0.055%; ID/organ [43]: 0.002%; ID/organ [44]: 20.5%; ID/organ [45]: 0.185%; ID/organ [46]: 0.016%; ID/organ [47]: 0.287%; ID/organ [48]: 0.012%; ID/organ [49]: 0.037%; ID/organ [50]: 4.07%; ID/organ [51]: 0.268%; ID/organ [52]: 15.5%; ID/organ [53]: 2.74%; ID/organ [54]: 0.641%
